pIC50: −log10 of the molar value. Calls of active or inactive are those of the source. How the calls were made is not given here.

A word on the pIC50: it is the IC50 on a negative log10 scale, so that one unit is a factor of ten. The IC50 is the point on the concentration scale where inhibition reaches its midpoint.

For this assay, the target named is glucose-6-phosphate dehydrogenase-6-phosphogluconolactonase (Plasmodium falciparum 3D7). Description: PfG6PD enzyme inhibitors, direct NADPH readout, dose response, orthogonal assay, biochemical, end-point NADPH detection (AID 540252). The following applies: purified PfG6PD enzyme.
As for `CCN(CC)c1ccc(C(=C2C=CC(=[N+](CC)CC)C=C2)c2ccc(N(CC)CC)cc2)cc1`, the negative-log IC50 (pIC50) is 4.40. Take `CCc1ccc(S(=O)(=O)Nc2cc(SCC(=O)O)c(O)c3ccccc23)cc1`: the IC50 was > 80 µM (inactive). Same read-out and setting: for `COc1ccc(CN(C)S(=O)(=O)c2nnc(NC(=O)c3ccc(C)cc3)s2)cc1OC` the value was > 80 µM (inactive). On the same count and under the same terms, the same measure for `Cn1c(-c2sccc2OCc2cccc(C(F)(F)F)c2)n[nH]c1=S`: > 80 µM (inactive); for `O=C(OCC(=O)c1ccc([N+](=O)[O-])cc1)/C(=C\c1ccc(Cl)cc1)NC(=O)c1ccccc1`: > 80 µM (inactive). As to `O=C(CCl)NCCN1C(=O)S/C(=C\c2cccnc2)C1=O`, the IC50 is > 80 µM (inactive). As to `COC(=O)[C@H](C)NC(=O)c1cc2c(cn1)[nH]c1ccccc12`, the IC50 is > 80 µM (inactive).

On to `Cc1cc(C)nc(NC(N)=NCCc2ccccc2)n1`, for which the IC50 is > 80 µM (inactive). `COc1cc(N(C)C)ccc1C=c1c2ccccc2n2c1cc(-c1ccccc1)[n+]2C`: the IC50 is > 80 µM (inactive). The same measure, in the same setting: for `Cc1ccc(NC(=O)c2cc(N3C(=O)C=CC3=O)ccc2N2CCOCC2)cc1` the value was > 80 µM (inactive). On to `Cn1sc2ccccc2c1=O`, for which the negative logarithm of the IC50 (pIC50) is 4.28. Regarding `COc1cc(-c2cc(=O)c3c(O)c(OC)c(OC)c(O)c3o2)ccc1O`, the IC50 is > 80 µM (inactive). Regarding `CC(C)Nc1ccc(Nc2ccccc2)cc1`, the IC50 is > 80 µM (inactive). Regarding `O=C(O)CSc1cc(NS(=O)(=O)c2ccc(Cl)cc2)c2ccccc2c1O`, the IC50 is > 80 µM (inactive).

As to `CC1(C)Cc2c(sc3nc4n(-c5ccccc5)c(=O)c(CCC(=O)O)nn4c(=O)c23)CO1`, the pIC50 is 5.05. Regarding `CN1/C(=C\C(=O)c2cccs2)Sc2ccccc21`, the IC50 is > 80 µM (inactive). Still for that read-out and setting: for `CCOC(=O)c1c(C)n(-c2ccc(C)cc2)c2c(C(C(C)=O)C(=O)O)c(Br)c(O)c(O)c12` (stereo not drawn) the value was > 80 µM (inactive). Take `COc1cc(N=c2ssnc2Cl)cc(OC)c1OC`: the negative-log IC50 (pIC50) was 4.27. With `O=C(CCSCCC(=O)NN=Cc1ccccc1)NN=Cc1ccccc1`, the IC50 is > 80 µM (inactive). Turning to `[O-]/[N+](=C\c1ccncc1)c1ccccc1`, the IC50 was > 80 µM (inactive). Consider `Cc1ccc2nc(SCC(=O)NC3CCCc4ccccc43)[nH]c2c1` (stereo not drawn), for which the IC50 was > 80 µM (inactive). On the same count and under the same terms, for `Oc1ccc(-c2cn3c(n2)SCC3)cc1O` the value was > 80 µM (inactive). Still for that read-out and setting: the same measure for `O=S(=O)(NCc1csc(-c2ccccc2)n1)c1ccc(Cl)s1`: > 80 µM (inactive). Consider `O=c1c2ccccc2sn1-c1ccc(Cl)cc1Cl`, for which the negative logarithm of the IC50 (pIC50) was 4.77. Take `NS(=O)(=O)c1ccc(-c2ccc(C=C3C(=O)NC(=O)NC3=O)o2)cc1`: the IC50 is > 80 µM (inactive). In the case of `Cc1cc(O)c(C(C)C)cc1N=Cc1ccc([N+](=O)[O-])cc1`, the IC50 is > 80 µM (inactive). For the compound `Clc1nssc1=Nc1nncs1`, the pIC50 is 4.45. Take `C#CCCc1cscc1/C=[N+](\[O-])c1ccc(C(=O)OCC)cc1`: the IC50 is > 80 µM (inactive). Same read-out and setting: the same measure for `COC1=CC(=O)C=C(OC)C1(O)CC(C)=O`: > 80 µM (inactive). In the case of `CCSc1nc2cc(S(=O)(=O)N3CCOCC3)ccc2o1`, the IC50 is > 80 µM (inactive). The same measure, in the same setting: the same measure for `Cc1ccc(NNS(=O)(=O)c2ccc(C)cc2)cc1`: > 80 µM (inactive); for `O=C1NC(=O)N(c2ccccc2)C(=O)/C1=C/c1ccc([N+](=O)[O-])s1`: > 80 µM (inactive); for `CCCN1CCc2cc(O)cc3c2[C@H]1Cc1ccc(O)c(O)c1-3`: > 80 µM (inactive). The same measure, in the same setting: for `COC1(OC)C=CC(=O)C=C1NC(=O)c1ccccc1OC(C)=O` the value was > 80 µM (inactive). The same measure, in the same setting: the same measure for `O=C(Nc1nnc(S(=O)(=O)N2CCOCC2)s1)c1cccc(Br)c1`: > 80 µM (inactive); for `O=C(Nc1nnc(S(=O)(=O)N2CCCCC2)s1)c1cccc(Br)c1`: > 80 µM (inactive); for `O=S(=O)(Nc1cc(Sc2cccc3cccnc23)c(O)c2ccccc12)c1ccc(F)cc1`: > 80 µM (inactive). Turning to `Cc1ccc(C(=O)/C=C/C(=O)c2ccc(C)cc2)cc1`, the pIC50 was 4.38. Take `COC(=O)[C@H](CCSC)NC(=O)c1cc2c(cn1)[nH]c1ccccc12`: the IC50 was > 80 µM (inactive). Still for that read-out and setting: for `COc1cc(CNc2ccc(N3CCCC3)cc2)ccc1OCc1ccccc1F` the value was > 80 µM (inactive); for `CCC(=O)OCCNc1cc(Sc2nc3ccccc3s2)c2nonc2c1[N+](=O)[O-]`, > 80 µM (inactive).

On to `O=[N+]([O-])c1c(NCCCO)cc(Sc2nc3ccccc3s2)c2nonc12`, for which the IC50 is > 80 µM (inactive).

`C=CCc1c(C)[nH]c(=S)c(C#N)c1C`: the IC50 was > 80 µM (inactive). Still for that read-out and setting: for `COCCn1nnnc1C(c1cc2cc(OC)c(OC)cc2[nH]c1=O)N1CCN(c2ccc(O)cc2)CC1` (stereo not drawn) the value was > 80 µM (inactive). For `CC1(C)CC2(CC(c3ccccc3F)c3ccc(O)c(O)c3O2)NC(=S)N1` (stereo not drawn), the pIC50 is 4.49.

Turning to `Cc1cc(C)c2c(=O)n(CC(=O)N3CCC(N4CCCCC4)CC3)sc2n1`, the IC50 is > 80 µM (inactive).

Take `Cc1[nH]c2ccccc2c1/C=N/Nc1nncn1N`: the IC50 was > 80 µM (inactive). Still for that read-out and setting: for `c1cc2c(cc1NC1CCCCCC1)OCO2` the value was > 80 µM (inactive). In the case of `S=c1ncc2[nH]c(=S)[nH]c2[nH]1`, the pIC50 is 4.22. Turning to `COC(=O)c1ccccc1NC1=C/C(=N\S(=O)(=O)c2cccs2)c2ccccc2C1=O`, the IC50 is > 80 µM (inactive). As to `COc1cc(N=c2ssnc2Cl)c(OC)cc1Cl`, the negative logarithm of the IC50 (pIC50) is 4.53. For the compound `CS(=O)(=O)c1ccc(N)c(SSc2cc(S(C)(=O)=O)ccc2N)c1`, the negative logarithm of the IC50 (pIC50) was 4.75.

With `Cc1cc(C)c2sc(NC(=O)C3=COCCO3)nc2c1`, the IC50 is > 80 µM (inactive). Same read-out and setting: the same measure for `COc1ccc(NC(=S)N(CCC(C)C)C2CCN(C(C)C)CC2)cc1Cl`: > 80 µM (inactive); for `CC(C)c1nnc(NC(=O)c2sc3ccccc3c2Cl)s1`: > 80 µM (inactive). Same read-out and setting: for `CCOc1ccc(CNc2ccc(N3CCCC3)cc2)cc1` the value was > 80 µM (inactive); for `CSc1nnc(NC(=O)c2ccc3c(c2)OCO3)s1`, > 80 µM (inactive). With `CC(C)c1cc2c(c(O)c1O)[C@@]13CCCC(C)(C)C1CC2OC3=O` (stereo partly drawn), the IC50 is > 80 µM (inactive). For `O=c1c2ccccc2[se]n1-c1ccccc1`, the negative logarithm of the IC50 (pIC50) was 4.87. Regarding `CCOC(=O)Cc1csc(-n2sc3ccccc3c2=O)n1`, the IC50 was > 80 µM (inactive).

Consider `O=C(CNC(=O)c1ccccc1)NCC(=O)OCC(=O)c1ccc([N+](=O)[O-])cc1`, for which the negative-log IC50 (pIC50) was 4.22.

`Cc1ccc(C(=O)Nc2nnc(S(=O)(=O)N3CCC(C)CC3)s2)cc1`: the IC50 was > 80 µM (inactive). Same read-out and setting: the same measure for `COc1cc(NCc2ccccc2O)c2ncccc2c1`: > 80 µM (inactive). The same measure, in the same setting: the same measure for `O=C(CSc1nc2ccc(Cl)cc2[nH]1)NC1CCCc2ccccc21` (stereo not drawn): > 80 µM (inactive).

With `O=C(CCC(=O)Nc1ccccc1Cl)N/N=C/c1ccccc1`, the IC50 was > 80 µM (inactive). Take `Cc1ccc(CNc2ccc(O)cc2)cc1`: the IC50 was > 80 µM (inactive). With `O=c1[nH]c2ccc(NCc3ccccc3OCc3ccc(Cl)cc3)cc2[nH]1`, the IC50 is > 80 µM (inactive). On to `Cc1ccc(S(=O)(=O)SC/C=C/CSS(=O)(=O)c2ccc(C)cc2)cc1`, for which the negative logarithm of the IC50 (pIC50) is 4.19. In the case of `C=CCSc1nc2sc3c(c2c(=O)n1CC)CCc1ccccc1-3`, the IC50 is > 80 µM (inactive). Regarding `CCn1c2ccccc2c2nc3cc(S(=O)(=O)N4CCOCC4)ccc3nc21`, the IC50 is > 80 µM (inactive).

As to `Oc1cc(-n2cccn2)c(O)cc1-n1cccn1`, the IC50 is > 80 µM (inactive).

Turning to `C(=N\Nc1nc2ccccc2[nH]1)/c1ccccn1`, the IC50 was > 80 µM (inactive). Still for that read-out and setting: for `COc1ccc(CCn2c(NN=C3CCCC3)nc3c2c(=O)[nH]c(=O)n3C)cc1` the value was > 80 µM (inactive). Consider `CNCc1ccccc1Sc1cc(O)ccc1O`, for which the IC50 was > 80 µM (inactive).

For the compound `CCCCCCCCn1sccc1=O`, the pIC50 was 4.34. As to `COc1ccc(-c2cn3cc(C)ccc3n2)cc1Br`, the IC50 is > 80 µM (inactive). Still for that read-out and setting: the same measure for `COC(=O)C1=C(C(=O)OC)SC2(S1)C(C(=O)OC)=C(C(=O)OC)Sc1c2ssc1=O`: > 80 µM (inactive). The same measure, in the same setting: for `CCn1c([N+](=O)[O-])nc2c1c(=O)[nH]c(=O)n2C` the value was > 80 µM (inactive). In the case of `N#Cc1ccc2sn(-c3ccccc3)c(=O)c2c1`, the negative logarithm of the IC50 (pIC50) was 4.82. Turning to `Cc1cnc(C=NNC(N)=S)c2cccc(N)c12`, the IC50 was > 80 µM (inactive). Consider `CCNc1ccccc1CP(=O)(c1ccccc1)c1ccccc1O` (stereo not drawn), for which the IC50 was > 80 µM (inactive). Take `C=CCN1CCc2cccc3c2[C@H]1Cc1ccc(O)c(O)c1-3`: the IC50 was > 80 µM (inactive). The same measure, in the same setting: for `CCN(CC)CCNC(=O)CCCCn1c(=S)[nH]c2c([nH]c3ccc(OC)cc32)c1=O` the value was > 80 µM (inactive). The same measure, in the same setting: for `Cc1cccc(OCC(=O)NCC(=O)N/N=C/c2ccccc2)c1` the value was > 80 µM (inactive); for `CCC(c1ccc(O)c(O)c1)C(CC)c1ccc(O)c(O)c1` (stereo not drawn), > 80 µM (inactive). As to `Cc1cc(C)nc(SSc2nc(C)cc(C)n2)n1`, the pIC50 is 4.24. For the compound `CN(C)c1ccc2nc3ccc(=O)cc-3sc2c1`, the IC50 was > 80 µM (inactive). For `Cc1c(N=C2C=C(Br)C(=O)C(Br)=C2)c(=O)n(-c2ccccc2)n1C`, the IC50 is > 80 µM (inactive). In the case of `COc1cc(CN2CCCC(C(=O)c3ccc4c5c(cccc35)CC4)C2)cc(OC)c1O` (stereo not drawn), the IC50 is > 80 µM (inactive).

Turning to `CCOC(=O)Nc1ccc(NCc2ccc(F)cc2)nc1N`, the IC50 is > 80 µM (inactive). The same measure, in the same setting: the same measure for `CC(SCC(=O)Nc1ccccc1)c1nc2ccccc2c(=O)[nH]1` (stereo not drawn): > 80 µM (inactive); for `N#C/C(C(=O)Nc1ccc(Cl)cc1)=C(/S)Nc1ccccc1`: > 80 µM (inactive).

Take `S=C(NN=Cc1ccccn1)N(Cc1ccccn1)Cc1ccccn1`: the IC50 is > 80 µM (inactive).
